From BindingDB's records for doi:10.1021/cb500956g (University of North Carolina At Chapel Hill, 2015)

Legend:
[1] = target: T1, Lethal(3)malignant brain tumor-like protein 3 (Homo sapiens, UniProt Q96JM7); test: AlphaScreen Assay; conditions: pH 8
T1 sequence (Q96JM7 whole entry): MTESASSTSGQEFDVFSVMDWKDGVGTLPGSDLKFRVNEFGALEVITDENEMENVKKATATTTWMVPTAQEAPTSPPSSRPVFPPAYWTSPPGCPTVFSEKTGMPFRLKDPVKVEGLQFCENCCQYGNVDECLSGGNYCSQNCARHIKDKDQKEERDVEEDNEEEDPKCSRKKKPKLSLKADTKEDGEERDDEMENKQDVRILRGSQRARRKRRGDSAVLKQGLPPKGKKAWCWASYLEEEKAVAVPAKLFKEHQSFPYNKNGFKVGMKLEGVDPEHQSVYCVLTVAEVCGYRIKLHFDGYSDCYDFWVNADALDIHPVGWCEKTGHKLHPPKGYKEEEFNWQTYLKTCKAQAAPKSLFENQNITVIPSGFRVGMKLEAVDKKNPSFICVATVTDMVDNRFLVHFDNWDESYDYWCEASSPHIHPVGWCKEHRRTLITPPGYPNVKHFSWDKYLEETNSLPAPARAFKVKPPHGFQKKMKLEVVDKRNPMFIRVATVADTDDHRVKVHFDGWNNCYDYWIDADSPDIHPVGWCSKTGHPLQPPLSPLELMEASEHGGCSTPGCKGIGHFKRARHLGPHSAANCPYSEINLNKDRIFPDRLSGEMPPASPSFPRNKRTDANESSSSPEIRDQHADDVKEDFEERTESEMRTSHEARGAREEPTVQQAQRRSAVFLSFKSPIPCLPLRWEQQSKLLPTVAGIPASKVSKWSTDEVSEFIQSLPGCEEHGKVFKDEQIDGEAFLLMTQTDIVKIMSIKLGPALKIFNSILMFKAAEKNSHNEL
Experimental: (§1) In brief, compound plates (1 μL at 10 mM highest concentration; 3-fold, 10-point dilutions in DMSO) were diluted in 1X assay buffer (20 mM TRIS pH 8.0, 25 mM NaCl, 2 mM DTT and 0.05% Tween-20) to 1 mM using a Multimek robotic pipettor (Nanoscreen), and 1 μL was spotted into the wells of 384-well low-volume Proxiplates (PerkinElmer). To these plates was added 9 μL of protein−peptide mix in a 1X assay buffer by Multidrop (Thermo) to bring the final compound concentration to 100 μM, and this was incubated for 30 min at RT. Next, 2 μL of a 1:1 mixture of streptavidin-conjugate donor and nickel-chelate acceptor beads (45μg/mL in 1X assay buffer) were added, and the plates were allowed to incubate for an additional 30 min in the dark at RT. After incubation, the plates were read on an EnVision multilabel reader equipped with an HTS AlphaScreen laser (PerkinElmer).

[2] = target: MBT domain-containing protein 1 (Homo sapiens, UniProt Q05BQ5); test: AlphaScreen Assay; conditions: pH 8
Sequence of MBT domain-containing protein 1 (Q05BQ5 whole entry, the tested form may be a part): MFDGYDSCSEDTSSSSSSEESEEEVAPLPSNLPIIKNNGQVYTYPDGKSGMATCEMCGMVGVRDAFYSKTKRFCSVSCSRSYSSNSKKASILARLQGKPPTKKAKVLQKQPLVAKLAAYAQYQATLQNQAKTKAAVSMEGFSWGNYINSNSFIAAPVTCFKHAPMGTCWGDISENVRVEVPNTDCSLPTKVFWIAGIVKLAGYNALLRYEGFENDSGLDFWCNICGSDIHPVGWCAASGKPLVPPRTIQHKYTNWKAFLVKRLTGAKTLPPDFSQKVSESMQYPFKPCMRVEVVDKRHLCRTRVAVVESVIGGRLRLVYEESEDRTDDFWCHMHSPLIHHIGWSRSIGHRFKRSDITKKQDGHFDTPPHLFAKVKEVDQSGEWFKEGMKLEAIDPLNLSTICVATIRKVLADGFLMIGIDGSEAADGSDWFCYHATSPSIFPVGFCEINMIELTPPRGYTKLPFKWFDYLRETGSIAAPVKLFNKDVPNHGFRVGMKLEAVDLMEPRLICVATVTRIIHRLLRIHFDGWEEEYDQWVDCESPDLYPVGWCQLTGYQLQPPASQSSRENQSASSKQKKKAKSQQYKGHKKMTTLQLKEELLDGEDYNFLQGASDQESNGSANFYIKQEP
Experimental: as §1

| Compound | IC50 [1] [µM] | IC50 [2] [µM] |
| --- | --- | --- |
| CC(C)(C)N1CCN(C(=O)c2cccc(Br)c2)CC1 [(3-Bromophenyl)(4-(tert-butyl)piperazin-1-yl)methanone (10)] | > 100 | > 100 |
| CC(C)(C)NCCCNC(=O)c1ccccc1Br [2-Bromo-N-(3-(tert-butylamino)propyl)benzamide (16)] | > 100 | > 100 |
| CC(C)(C)NCCCCCNC(=O)c1cccc(Br)c1 [3-Bromo-N-(5-(tert-butylamino)pentyl)benzamide (12)] | > 100 | > 100 |
| CC(C)(C)NCCCCNC(=O)c1cccc(Br)c1 [3-Bromo-N-(4-(tert-butylamino)butyl)benzamide (11)] | > 100 | > 100 |
| CC(C)(C)NCCCNC(=O)c1cc(Br)ccn1 [4-Bromo-N-(3-(tert-butylamino)propyl)picolinamide (24)] | > 100 | > 100 |
| CC(C)(C)NCCCNC(=O)c1cc(C(F)(F)F)ccn1 [N-(3-(Tert-butylamino)propyl)-4-(trifluoromethyl)picolinamide (25)] | > 100 | > 100 |
| CC(C)(C)NCCCNC(=O)c1ccc(Br)cc1 [4-Bromo-N-(3-(tert-butylamino)propyl)benzamide (15)] | > 100 | > 100 |
